CC(C)(C)c1cc(O)c(C(C)(C)C)cc1O
Settings	solubility (mole fraction)
in acetone, 283.35 K	0.0332
in acetone, 285.65 K	0.0365
in acetone, 288.25 K	0.0413
in acetone, 290.55 K	0.0456
in acetone, 293.15 K	0.0519
in acetone, 295.35 K	0.057
in acetone, 298.05 K	0.0636
in acetone, 300.35 K	0.0691
in acetone, 303.15 K	0.0775
in acetone, 305.45 K	0.0836
in acetone, 308.05 K	0.0929
in acetone, 310.25 K	0.1
in acetone, 313.05 K	0.12
in acetone, 316.15 K	0.123
in acetone, 319.15 K	0.136
in acetone, 321.15 K	0.148
in acetone, 323.15 K	0.161
in ethyl acetate, 278.95 K	0.144
in ethyl acetate, 281.55 K	0.145
in ethyl acetate, 284.45 K	0.146
in ethyl acetate, 287.35 K	0.148
in ethyl acetate, 290.45 K	0.148
in ethyl acetate, 293.15 K	0.15
in ethyl acetate, 296.25 K	0.151
in ethyl acetate, 298.85 K	0.153
in ethyl acetate, 301.85 K	0.155
in ethyl acetate, 304.75 K	0.157
in ethyl acetate, 307.45 K	0.158
in ethyl acetate, 310.45 K	0.161
in ethyl acetate, 312.35 K	0.163
in ethyl acetate, 316.15 K	0.166
in ethyl acetate, 319.15 K	0.169
in ethyl acetate, 322.15 K	0.17
in ethyl acetate, 325.15 K	0.173
in ethyl acetate, 328.15 K	0.177
in ethyl acetate, 331.15 K	0.18
in ethyl acetate, 335.15 K	0.183
in ethyl acetate, 337.15 K	0.186
in ethyl acetate, 340.15 K	0.188
in ethyl acetate, 343.15 K	0.194
in ethyl acetate, 346.15 K	0.195
in methanol, 280.95 K	0.0647
in methanol, 283.55 K	0.065
in methanol, 285.95 K	0.0651
in methanol, 288.15 K	0.0653
in methanol, 290.65 K	0.0658
in methanol, 293.15 K	0.0667
in methanol, 295.55 K	0.0678
in methanol, 297.95 K	0.0688
in methanol, 300.65 K	0.0697
in methanol, 302.65 K	0.0707
in methanol, 305.15 K	0.0712
in methanol, 307.25 K	0.072
in methanol, 309.85 K	0.0727
in methanol, 312.05 K	0.0734
in methanol, 316.15 K	0.0766
in methanol, 319.15 K	0.078
in methanol, 322.15 K	0.08
in methanol, 325.15 K	0.0811
in methanol, 328.15 K	0.0833
in methanol, 331.15 K	0.0849
in methanol, 333.15 K	0.0863

Source: BigSolDB 2.1
